# In patent publication US8802597B2, “Herbicidal pyrimidines” (E I du Pont de Nemours and Company, priority 2003, dated 2014):
# Tests used:
# Assay type in all cases: in vivo
# [1] = tested on: Surinam grass (Brachiaria decumbens); assay: Test B pre/postemergence
# Source text: (§1) Seeds selected from barnyardgrass (Echinochloa crus-galli), Surinam grass (Brachiaria decumbens), cocklebur (Xanthium strumarium), corn (Zea mays), crabgrass (Digitaria sanguinalis), giant foxtail (Setaria faberii), lambsquarters (Chenopodium album), morningglory (Ipomoea coccinea), pigweed (Amaranthus retroflexus), velvetleaf (Abutilon theophrasti), and wheat (Triticum aestivum) were planted and treated preemergence with test chemicals formulated in a non-phytotoxic solvent mixture which included a surfactant.
# (§2) At the same time, plants selected from these crop and weed species and also blackgrass (Alopecurus myosuroides) and wild oat (Avena fatua) were treated with postemergence applications of test chemicals formulated in the same manner. Plants ranged in height from 2 to 18 cm (1- to 4-leaf stage) for postemergence treatments. Plant species in the flooded paddy test consisted of rice (Oryza sativa), umbrella sedge (Cyperus difformis), duck salad (Heteranthera limosa) and barnyardgrass (Echinochloa crus-galli) grown to the 2-leaf stage for testing. Treated plants and controls were maintained in a greenhouse for 13 to 15 days, after which time all species were compared to controls and visually evaluated. Plant response ratings, summarized in Table B, are based on a scale of 0 to 100 where 0 is no effect and 100 is complete control. A dash (-) response means no test result.
# [2] = tested on: barnyardgrass (Echinochloa crus-galli); assay: Test B pre/postemergence
# Source text: as §1, §2
# [3] = tested on: cocklebur (Xanthium strumarium); assay: Test B pre/postemergence
# Source text: as §1, §2
# corn (Zea mays) = assay: Test B pre/postemergence
# Source text: as §1, §2
# [4] = tested on: crabgrass (Digitaria sanguinalis); assay: Test B pre/postemergence
# Source text: as §1, §2
# [5] = tested on: giant foxtail (Setaria faberii); assay: Test B pre/postemergence
# Source text: as §1, §2
# [6] = tested on: lambsquarters (Chenopodium album); assay: Test B pre/postemergence; details: Postemergence; for Lambsquarters plant response rating: 125 g ai/ha, scale 0 to 100 (0 no effect, 100 complete control); for Plant response rating, Lambsquarters: 500 g ai/ha, scale 0 to 100
# Source text: as §1, §2
# [7] = tested on: morningglory (Ipomoea coccinea); assay: Test B pre/postemergence
# Source text: as §1, §2
# [8] = tested on: pigweed (Amaranthus retroflexus); assay: Test B pre/postemergence
# Source text: as §1, §2
# [9] = tested on: velvetleaf (Abutilon theophrasti); assay: Test B pre/postemergence
# Source text: as §1, §2
# [10] = tested on: wheat (Triticum aestivum); assay: Test B pre/postemergence
# Source text: as §1, §2
# [11] = tested on: blackgrass (Alopecurus myosuroides); assay: Test B postemergence; details: for Blackgrass plant response rating: 125 g ai/ha, scale 0 to 100 (0 no effect, 100 complete control); for Plant response rating, Blackgrass: 500 g ai/ha, scale 0 to 100
# Source text: as §1, §2
# wild oat (Avena fatua) = assay: Test B postemergence; details: for Oat, Wild plant response rating: 125 g ai/ha, scale 0 to 100 (0 no effect, 100 complete control); for Plant response rating, Oat, Wild: 500 g ai/ha, scale 0 to 100
# Source text: as §1, §2
# [12] = Postemergence, 125 g ai/ha, scale 0 to 100 (0 no effect, 100 complete control)
# [13] = Postemergence, 500 g ai/ha, scale 0 to 100
# [14] = Preemergence, 125 g ai/ha, scale 0 to 100 (0 no effect, 100 complete control)
# [15] = Preemergence, 500 g ai/ha, scale 0 to 100 (0 no effect, 100 complete control)
smiles,measurement,setting,value
CCOC(=O)c1nc(C2CC2)nc(NOCC(=O)O)c1Br [Compound 125],Surinam Grass plant response rating,[1]; [12],0
same,"Plant response rating, Surinam Grass",[1]; [13],10
same,"Plant response rating, Surinam Grass",[1]; [14],0
same,"Plant response rating, Surinam Grass",[1]; [15],0
same,Barnyardgrass plant response rating,[2]; [12],0
same,"Plant response rating, Barnyardgrass",[2]; [13],70
same,"Plant response rating, Barnyardgrass",[2]; [14],0
same,Cocklebur plant response rating,[3]; [12],40
same,"Plant response rating, Cocklebur",[3]; [13],60
same,"Plant response rating, Cocklebur",[3]; [14],30
same,"Plant response rating, Cocklebur",[3]; [15],90
same,Corn plant response rating,corn (Zea mays); [12],0
same,"Plant response rating, Corn",corn (Zea mays); [13],0
same,"Plant response rating, Corn",corn (Zea mays); [14],0
same,"Plant response rating, Corn",corn (Zea mays); [15],0
same,Crabgrass plant response rating,[4]; [12],20
same,"Plant response rating, Crabgrass",[4]; [13],30
same,"Plant response rating, Crabgrass",[4]; [14],0
same,"Plant response rating, Crabgrass",[4]; [15],100
same,"Foxtail, Giant plant response rating",[5]; [12],0
same,"Plant response rating, Foxtail, Giant",[5]; [13],40
same,"Plant response rating, Foxtail, Giant",[5]; [14],0
same,"Plant response rating, Foxtail, Giant",[5]; [15],0
same,Lambsquarters plant response rating,[6],60
same,"Plant response rating, Lambsquarters",[6],70
same,Morningglory plant response rating,[7]; [12],70
same,"Plant response rating, Morningglory",[7]; [13],90
same,"Plant response rating, Morningglory",[7]; [14],30
same,"Plant response rating, Morningglory",[7]; [15],100
same,Pigweed plant response rating,[8]; [12],60
same,"Plant response rating, Pigweed",[8]; [13],60
same,"Plant response rating, Pigweed",[8]; [14],30
same,"Plant response rating, Pigweed",[8]; [15],90
same,Velvetleaf plant response rating,[9]; [12],0
same,"Plant response rating, Velvetleaf",[9]; [13],50
same,"Plant response rating, Velvetleaf",[9]; [14],10
same,"Plant response rating, Velvetleaf",[9]; [15],90
same,Wheat plant response rating,[10]; [12],0
same,"Plant response rating, Wheat",[10]; [13],0
same,"Plant response rating, Wheat",[10]; [14],0
same,"Plant response rating, Wheat",[10]; [15],0
same,Blackgrass plant response rating,[11],0
same,"Plant response rating, Blackgrass",[11],20
same,"Oat, Wild plant response rating",wild oat (Avena fatua),0
same,"Plant response rating, Oat, Wild",wild oat (Avena fatua),20
CCOC(=O)c1nc(C2CC2)nc(NOCc2ccccc2)c1Br [Compound 54],Surinam Grass plant response rating,[1]; [12],0
same,"Plant response rating, Surinam Grass",[1]; [13],0
same,"Plant response rating, Surinam Grass",[1]; [14],0
same,"Plant response rating, Surinam Grass",[1]; [15],0
same,Barnyardgrass plant response rating,[2]; [12],0
same,"Plant response rating, Barnyardgrass",[2]; [13],70
same,"Plant response rating, Barnyardgrass",[2]; [14],0
same,"Plant response rating, Barnyardgrass",[2]; [15],40
same,Cocklebur plant response rating,[3]; [12],20
same,"Plant response rating, Cocklebur",[3]; [13],80
same,"Plant response rating, Cocklebur",[3]; [14],50
same,"Plant response rating, Cocklebur",[3]; [15],90
same,Corn plant response rating,corn (Zea mays); [12],0
same,"Plant response rating, Corn",corn (Zea mays); [13],20
same,"Plant response rating, Corn",corn (Zea mays); [14],0
same,"Plant response rating, Corn",corn (Zea mays); [15],0
same,Crabgrass plant response rating,[4]; [12],20
same,"Plant response rating, Crabgrass",[4]; [13],30
same,"Plant response rating, Crabgrass",[4]; [14],0
same,"Plant response rating, Crabgrass",[4]; [15],0
same,"Foxtail, Giant plant response rating",[5]; [12],20
same,"Plant response rating, Foxtail, Giant",[5]; [13],30
same,"Plant response rating, Foxtail, Giant",[5]; [14],0
same,"Plant response rating, Foxtail, Giant",[5]; [15],0
same,Lambsquarters plant response rating,[6],80
same,"Plant response rating, Lambsquarters",[6],90
same,Morningglory plant response rating,[7]; [12],80
same,"Plant response rating, Morningglory",[7]; [13],90
same,"Plant response rating, Morningglory",[7]; [14],0
same,Pigweed plant response rating,[8]; [12],80
same,"Plant response rating, Pigweed",[8]; [13],90
same,"Plant response rating, Pigweed",[8]; [14],100
same,"Plant response rating, Pigweed",[8]; [15],100
same,Velvetleaf plant response rating,[9]; [12],50
same,"Plant response rating, Velvetleaf",[9]; [13],60
same,"Plant response rating, Velvetleaf",[9]; [14],10
same,"Plant response rating, Velvetleaf",[9]; [15],80
same,Wheat plant response rating,[10]; [12],0
same,"Plant response rating, Wheat",[10]; [13],20
same,"Plant response rating, Wheat",[10]; [14],0
same,"Plant response rating, Wheat",[10]; [15],0
same,Blackgrass plant response rating,[11],40
same,"Plant response rating, Blackgrass",[11],40
same,"Oat, Wild plant response rating",wild oat (Avena fatua),0
same,"Plant response rating, Oat, Wild",wild oat (Avena fatua),40
CCOC(=O)c1nc(C2CC2)nc(NOC)c1Br [Compound 52],Surinam Grass plant response rating,[1]; [12],0
same,"Plant response rating, Surinam Grass",[1]; [13],30
same,"Plant response rating, Surinam Grass",[1]; [14],0
same,"Plant response rating, Surinam Grass",[1]; [15],0
same,Barnyardgrass plant response rating,[2]; [12],30
same,"Plant response rating, Barnyardgrass",[2]; [13],80
same,"Plant response rating, Barnyardgrass",[2]; [14],0
same,"Plant response rating, Barnyardgrass",[2]; [15],30
same,Cocklebur plant response rating,[3]; [12],40
same,"Plant response rating, Cocklebur",[3]; [13],60
same,"Plant response rating, Cocklebur",[3]; [14],10
same,"Plant response rating, Cocklebur",[3]; [15],60
same,Corn plant response rating,corn (Zea mays); [12],0
same,"Plant response rating, Corn",corn (Zea mays); [13],60
same,"Plant response rating, Corn",corn (Zea mays); [15],0
same,Crabgrass plant response rating,[4]; [12],0
same,"Plant response rating, Crabgrass",[4]; [13],60
same,"Plant response rating, Crabgrass",[4]; [14],0
same,"Plant response rating, Crabgrass",[4]; [15],0
same,"Foxtail, Giant plant response rating",[5]; [12],40
same,"Plant response rating, Foxtail, Giant",[5]; [13],60
same,"Plant response rating, Foxtail, Giant",[5]; [14],0
same,"Plant response rating, Foxtail, Giant",[5]; [15],0
same,Lambsquarters plant response rating,[6],80
same,"Plant response rating, Lambsquarters",[6],90
same,Morningglory plant response rating,[7]; [12],90
same,"Plant response rating, Morningglory",[7]; [13],90
same,"Plant response rating, Morningglory",[7]; [14],10
same,"Plant response rating, Morningglory",[7]; [15],100
same,Pigweed plant response rating,[8]; [12],60
same,"Plant response rating, Pigweed",[8]; [13],90
same,"Plant response rating, Pigweed",[8]; [15],50
same,Velvetleaf plant response rating,[9]; [12],40
same,"Plant response rating, Velvetleaf",[9]; [13],50
same,"Plant response rating, Velvetleaf",[9]; [14],0
same,"Plant response rating, Velvetleaf",[9]; [15],30
same,Wheat plant response rating,[10]; [12],0
same,"Plant response rating, Wheat",[10]; [13],20
same,"Plant response rating, Wheat",[10]; [14],0
same,"Plant response rating, Wheat",[10]; [15],0
same,Blackgrass plant response rating,[11],0
same,"Plant response rating, Blackgrass",[11],50
same,"Oat, Wild plant response rating",wild oat (Avena fatua),0
same,"Plant response rating, Oat, Wild",wild oat (Avena fatua),20
